In patent publication US20010041801A1, “Water soluble fullerenes with antiviral activity” (The Regents of the University of California, priority 1994, published 2001) one finds Ki and mode of inhibition data, which are given here for 1 compound.

Molecules are shown by their SMILES.

In general, Ki refers to the equilibrium dissociation constant of an inhibitor or competing ligand from its target. The low end stands for a stronger hold on the target, the high end for a looser hold on the target.

This assay deals with T1, HIV-1 protease (HIVP) (Human immunodeficiency virus type 1 group M subtype B, UniProt P04585).
T1 construct: HIV produces a small, dimeric aspartyl protease which specifically cleaves the polyprotein precursors
Description: Inhibition of HIV-1 protease, HPLC assay with kinetic analysis. It is filed as biochemical. The procedure: The ability of compound 2c to inhibit the HIVP was assayed with an HPLC method as described in R. L DesJarlais, et al., Proc. Natl. Acad. Sci U.S.A., 87:6644-6648, 1990. […] Assays were performed in buffer containing 50 mM NaAc pH 5.5, 1.0 M NaCl, 5% glycerol, 1% DMSO, and 2 mM EDTA. Inhibitor was preincubated with ≈0.05 μg of enzyme for 5 minutes at which time the reaction was initiated by addition of substrate. The reaction was quenched at <15% product formation by the addition of 15 μL of 10% TFA. The cleavage products of the substrate peptide H-Lys-Ala-Arg-Val-Tyr-p-nitro-Phe-Glu-Ala-Ile-NH2 (made by Bachem, Philadelphia, Pa.) were assayed by HPLC using a 10-40% (acetonitrile, 0.1% TFA): (water, 0.1% TFA) gradient over 30 minutes at 1 mL/minute. Product was quantitated by integration of peak areas followed by comparison to product standard curves.
Determination of kinetic constants was done with the program KinetAsyst (IntelliKinetics) by fitting of the data to the equation […]] which describes competitive inhibition.

Take `O=C(O)CCC(=O)NCCc1ccc(C2(c3ccc(CCNC(=O)CCC(=O)O)cc3)C34c5c6c7c8c9c%10c(c%11c%12c3c3c5c5c%13c6c6c7c7c9c9c%14c%10c%10c%11c%11c%12c%12c3c3c5c5c%13c%13c6c6c7c9c7c9c%14c%10c%10c%11c%11c%12c3c3c5c5c%13c6c7c6c9c%10c%11c3c56)C824)cc1` [Compound 2c, bis(monosuccinimide) derivative of p,p′-bis(2-aminoethyl)diphenyl-C60]: the inhibition constant (Ki) was 5.3 µM. Besides, the mode of inhibition entry (kinetic analysis of HIVP) was “competitive”.
